Measured values published in patent publication US10704076B2, “Multi-tiered high through-put screen for compounds effective against bacterial biofilm and compounds effective for inhibiting and eradicating bacterial biofilm” (University of Cincinnati, priority 2013, dated 2020).
Converted amounts (≈) assume the structure as drawn. Read-outs that look alike come from different tables or passages of the source.

Key:
S. epidermidis [1] = experiment: HTS total bacterial growth assay (optical density OD560); format: cell-based; conditions: Staphylococcus epidermidis, dose-response, read-out: Total Bacteria Growth AC50
Description: (§1) Each HTS tier consisted of: (i) primary screening, (ii) confirmation screening and (iii) dose-response curve screening. Each tier of HTS included three distinct biological process assays. The first assay was an optical density measurement of bacteria growth in the presence of each compound reported as a total bacteria growth. In the second assay, resazurin solution was used as an indicator of metabolic activity to measure the live bacteria in the biofilms, reported as live biofilm. The final assay was crystal violet staining, which indicated the amount of biofilm formation and the effect of each compound on this process, reported as total biofilm formation.
(§2) Briefly, stationary phase bacteria grown in L-broth were diluted 1:200 into fresh L-broth and 50 μM of each test compound. After 20-24 hours, the optical density (OD560) of each suspension was measured using Zeiss Plate::Vision with a 560 BP filter (560 nm, 2.5% light intensity, 1 mm focus to bottom of plate, and exposure time of 100 ms). To measure bacterial viability in the biofilm, 50 μl of a 5 mg/ml resazurin solution in L-broth was added to each well after washing 3 times with 50 μl of PBS. The plates were then incubated at 37° C. for 30 or 180 min for A. baumannii and P. aeruginosa biofilms, respectively. Fluorescence was measured using Zeiss Plate::Vision at excitation and emission wavelengths of 535 and 580 nm, 100 ms exposure time, 2.5% intensity and a 2 mm focus to the bottom of the biofilms. To assess biofilm formation, plates were washed 3 times with PBS and then 50 μl of 0.01% of crystal violet was added to each well to assess bacterial biofilm formation as described in a similar borosilicate tube assay by O'Toole and Kolter. After incubation at room temperature for 30 min and removal of the crystal violet solution by washing with PBS, 95% ethanol was added to solubilize the crystal violet followed by incubation for 20 min at room temperature. Finally, the optical density of each plate was determined using measured by Zeiss Plate::Vision using the same settings used to measure total bacterial growth. These 3 steps were used in each of the three tiers for the HTS process: (i) single point primary screening at 10 μM, (ii) triplicate confirmation of hits from (i) at 10 μM and (iii) determination of AC50 values in 10 point dose-response at a concentration range of 0.1-50 μM) in hits from (ii). The AC50 represents the concentration of compound that inhibits 50% of bacterial growth, bacterial viability, or biofilm formation. Genedata Screener® Assay Analyzer Software (Ver. 9.0.0 Standard) was used to analyze data from all assay tiers. Compounds with an AC50 of less than 20 μM in one of the biological assays from the dose response screen were subject to additional investigation.

P. aeruginosa = experiment: MIC determination (CLSI, Mueller Hinton broth), planktonic cultures; format: cell-based, Pseudomonas aeruginosa; conditions: for MIC: Pseudomonas aeruginosa
Experimental: (§3) A standard protocol for determining the MIC of a specific compound as outlined by the Clinical and Laboratory Standards Institute (CLSI) was used, based on growth of the selected bacteria in Mueller Hinton (MH) broth with subsequent 2-fold dilutions of compounds of interest. Following the CLSI protocols, the MIC of each broad spectrum “hit” compound was performed in all 3 bacterial species in both aerobic and anaerobic conditions. All bacteria were grown in MH broth for 18 hrs at 37° C. The cells were then diluted 100-fold into MH broth containing compounds at concentrations ranging from 0.40-50 μM in the presence of either KNO3 or glucose to allow bacterial growth under anaerobic condition. After 24 hrs of incubation, cell growth was measured at OD600 using a SpectraMax 190 Absorbance Microplate Reader.
(§4) The HTS and CLSM assays identified and confirmed compounds that can inhibit biofilms formation in aerobic growth conditions. However, P. aeruginosa and S. epidermidis are capable of growth under anaerobic as well as aerobic conditions. […] The Minimal Inhibitory Concentrations (MIC) of the four broad agent hit compounds under both aerobic and anaerobic conditions of planktonic P. aeruginosa and S. epidermidis cultures were determined to evaluate compound efficacy in different growth conditions. The MICs for A. baumannii were determined only in aerobic conditions. To examine growth in aerobic conditions, bacteria were grown in either Mueller Hinton (MH) media only, MH media in the presence of 1% KNO3, or MH in the presence of 1% glucose. For MIC determinations under anaerobic conditions, growth was examined in MH media with 1% KNO3 or with 1% glucose.

S. epidermidis biofilm = experiment: HTS total biofilm formation assay (crystal violet staining); format: cell-based; conditions: Staphylococcus epidermidis, dose-response
Description: as §1, §2

A. baumannii [2] = experiment: HTS total bacterial growth assay (optical density OD560); format: cell-based, Acinetobacter baumannii; conditions: for AC50: Acinetobacter baumannii, 10 point dose-response 0.1-50 μM, NS* = no sigmoid curve observed, read-out: Total Bacteria Growth AC50
Description: as §1, §2

A. baumannii biofilm = experiment: HTS total biofilm formation assay (crystal violet staining); format: cell-based, Acinetobacter baumannii; conditions: for AC50: Acinetobacter baumannii, 10 point dose-response 0.1-50 μM
Description: as §1, §2

[3] = tested on: P. aeruginosa established biofilm; experiment: CLSM, effect of compound on the pre-existing biofilm; format: cell-based, Pseudomonas aeruginosa
A. baumannii [4] = experiment: MIC determination (CLSI, Mueller Hinton broth), planktonic cultures; format: cell-based, Acinetobacter baumannii; conditions: MH, Aerobic; for MIC: Acinetobacter baumannii, read-out: Minimum Inhibition Concentration
Experimental: as §3, §4

S. epidermidis [5] = experiment: as above; format: cell-based; conditions: Staphylococcus epidermidis
Experimental: as §3, §4

P. aeruginosa biofilm = experiment: HTS total biofilm formation assay (crystal violet staining); format: cell-based, Pseudomonas aeruginosa; conditions: for AC50: 10 point dose-response 0.1-50 μM
Description: as §1, §2

[6] = MH with 1% KNO3, Aerobic, read-out: Minimum Inhibition Concentration
[7] = MH with 1% KNO3, Anaerobic, read-out: Minimum Inhibition Concentration
[8] = MH, Aerobic, read-out: Minimum Inhibition Concentration
[9] = across all growth conditions (aerobic and anaerobic), read-out: concentration required to inhibit planktonic P. aeruginosa growth (MIC)
[10] = MH with 1% Glucose, Aerobic, read-out: Minimum Inhibition Concentration
[11] = MH with 1% Glucose, Anaerobic, read-out: Minimum Inhibition Concentration
[12] = across all media and conditions (aerobic and anaerobic), read-out: concentration required to inhibit planktonic S. epidermidis growth (MIC)

Row | MIC (P. aeruginosa; [6]) | MIC (P. aeruginosa; [7]) | MIC (P. aeruginosa; [8]) | MIC (P. aeruginosa; [9]) | MIC (A. baumannii [4]) | MIC (S. epidermidis [5]; [10]) | MIC (S. epidermidis [5]; [11]) | MIC (S. epidermidis [5]; [6]) | MIC (S. epidermidis [5]; [7]) | MIC (S. epidermidis [5]; [8]) | MIC (S. epidermidis [5]; [12]) | Structure (SMILES) | AC50 (S. epidermidis [1]) | AC50 (S. epidermidis biofilm) | AC50 (A. baumannii [2]) | AC50 (A. baumannii biofilm) | effective on established P. aeruginosa biofilm at 100 μM (CLSM, in words) [3] | Minimum Inhibition Concentration (A. baumannii [4]) | AC50 (P. aeruginosa biofilm; Pseudomonas aeruginosa) | other results
1 | 33.3 ± 8.33 µM (≈ 5.82 µg/mL) | 25 µM (≈ 4.37 µg/mL) | > 50 µM | ≥ 25 µM | 5 to 6 µM (≈ 0.873 to 1.05 µg/mL) | 10.4 ± 2.08 µM (≈ 1.82 µg/mL) | 16.7 ± 4.17 µM (≈ 2.91 µg/mL) | 25 µM (≈ 4.37 µg/mL) | 16.7 ± 4.17 µM (≈ 2.91 µg/mL) | 20.8 ± 4.17 µM (≈ 3.64 µg/mL) | 10 to 25 µM (≈ 1.75 to 4.37 µg/mL) | Cn1sc(Cl)c(C#N)c1=O [Compound 3, 5-chloro-2-methyl-3-oxo-1,2-thiazole-4-carbonitrile] | 8.89 µM | 8.84 µM | 2.93 µM | 4.45 µM | effective at killing | 6.25 ± 2.21 µM | 3.07 µM | 
2 | 5.21 ± 1.04 µM (≈ 2.03 µg/mL) | 4.17 ± 1.04 µM (≈ 1.63 µg/mL) | 4.7 ± 1.04 µM (≈ 1.84 µg/mL) | 4 to 5 µM (≈ 1.56 to 1.95 µg/mL) | 16 µM (≈ 6.25 µg/mL) | 5.86 ± 2.42 µM (≈ 2.29 µg/mL) | 5.21 ± 1.04 µM (≈ 2.03 µg/mL) | 10.4 ± 2.08 µM (≈ 4.07 µg/mL) | 5.21 ± 1.04 µM (≈ 2.03 µg/mL) | 8.33 ± 2.08 µM (≈ 3.25 µg/mL) | 4 to 10 µM (≈ 1.56 to 3.9 µg/mL) | NC(=S)N1CCN(c2cc3c(cc2F)c(=O)c(C(=O)O)cn3C2CC2)CC1 [Compound 7, 7-(4-carbamothioylpiperazin-1-yl)-1-cyclopropyl-6-fluoro-4-oxoquinoline-3-carboxylic acid] | 2.2 µM | 1.12 µM | 12.1 µM | 17.7 µM | effective | 16.67 ± 4.17 µM | 7.81 µM | 
3 | ≤ 20 µM | 7 µM (≈ 2.35 µg/mL) | 10.4 ± 2.08 µM (≈ 3.5 µg/mL) |  | ~1 µM (≈ 0.336 µg/mL) | 0.65 ± 0.13 µM (≈ 0.219 µg/mL) | 0.78 ± 0.39 µM (≈ 0.262 µg/mL) | 0.78 ± 0.39 µM (≈ 0.262 µg/mL) | 0.39 µM (≈ 0.131 µg/mL) | 0.65 ± 10.1 µM (≈ 0.219 µg/mL) | < 1 µM | O=C(O)c1cn(C2CC2)c2c(F)c(N3CC(O)C3)c(F)cc2c1=O [Compound 8, 1-cyclopropyl-6,8-difluoro-7-(3-hydroxyazetidin-1-yl)-4-oxoquinoline-3-carboxylic acid] | < 0.1 µM | < 0.1 µM | 3.44 µM |  |  |  |  | Minimum Inhibition Concentration (P. aeruginosa; MH with 1% KNO3, Anaerobic): 7.81 ± 2.71 µM; HTS assay results: Total Bacteria growth (A. baumannii [2]; Y / —): —* (AC50 higher than 20 μM); HTS assay results: Biofilm Formation (A. baumannii biofilm; Y / —): —* (AC50 higher than 20 μM); AC50 (P. aeruginosa biofilm): 10.3 µM; HTS assay results: Biofilm Formation (P. aeruginosa biofilm; Y / —): —* (AC50 higher than 20 μM)
4 | > 50 µM | 25 ± 12.5 µM (≈ 8.56 µg/mL) | > 50 µM | ≥ 25 µM | 5 to 6 µM (≈ 1.71 to 2.05 µg/mL) | 7.81 ± 2.71 µM (≈ 2.67 µg/mL) | 7.29 ± 2.76 µM (≈ 2.5 µg/mL) | 7.81 ± 2.71 µM (≈ 2.67 µg/mL) | 4.17 ± 1.04 µM (≈ 1.43 µg/mL) | 5.73 ± 3.42 µM (≈ 1.96 µg/mL) | 4 to 10 µM (≈ 1.37 to 3.42 µg/mL) | O=C(O)c1cn(C2CC2)c2c(F)c(-c3ccncc3)c(F)cc2c1=O [Compound 11, 7-(4-pyridyl)-1-cyclopropyl-6,8-difluoro-4-oxoquinoline-3-carboxylic acid] | < 0.1 µM | < 0.1 µM | 0.66 µM | 0.85 µM |  | 5.12 ± 1.04 µM | 7.4 µM | 
